The target in one experiment is T1, EGFR (L858R T790M C797S) (Homo sapiens, UniProt P00533, C797S/L858R/T790M).
T1 construct: purchased SignalChem E10-122VG
Kind of experiment: Biochemical EGFR inhibition assay (Caliper mobility shift), EGFR LRTMCS. The settings on record: LRTMCS (PH) IC50 (nM) @ 1 mM ATP (Num), EGFR LRTMCS mutant. The essentials: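 Kinase reactions at 25 °C run to 10–20% peptide phosphorylation, stopped with 35 mM EDTA. Phosphorylated product and substrate separated electrophoretically by mobility shift. Apparent IC50 from percent activity versus log compound concentration.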

The target of experiment [1] is T2, intracellular phosphorylation of EGFR in NCI-H1975 cell line that harbors the EGFR L858R T790M mutations (Homo sapiens, UniProt P00533, L858R/T790M).
T2 construct: NCI-H1975 cell line that harbors the EGFR L858R T790M mutations (ATCC, CRL-5908); host or cells: NCI-H1975
T2 sequence (P00533 25-1210 T790M/L858R): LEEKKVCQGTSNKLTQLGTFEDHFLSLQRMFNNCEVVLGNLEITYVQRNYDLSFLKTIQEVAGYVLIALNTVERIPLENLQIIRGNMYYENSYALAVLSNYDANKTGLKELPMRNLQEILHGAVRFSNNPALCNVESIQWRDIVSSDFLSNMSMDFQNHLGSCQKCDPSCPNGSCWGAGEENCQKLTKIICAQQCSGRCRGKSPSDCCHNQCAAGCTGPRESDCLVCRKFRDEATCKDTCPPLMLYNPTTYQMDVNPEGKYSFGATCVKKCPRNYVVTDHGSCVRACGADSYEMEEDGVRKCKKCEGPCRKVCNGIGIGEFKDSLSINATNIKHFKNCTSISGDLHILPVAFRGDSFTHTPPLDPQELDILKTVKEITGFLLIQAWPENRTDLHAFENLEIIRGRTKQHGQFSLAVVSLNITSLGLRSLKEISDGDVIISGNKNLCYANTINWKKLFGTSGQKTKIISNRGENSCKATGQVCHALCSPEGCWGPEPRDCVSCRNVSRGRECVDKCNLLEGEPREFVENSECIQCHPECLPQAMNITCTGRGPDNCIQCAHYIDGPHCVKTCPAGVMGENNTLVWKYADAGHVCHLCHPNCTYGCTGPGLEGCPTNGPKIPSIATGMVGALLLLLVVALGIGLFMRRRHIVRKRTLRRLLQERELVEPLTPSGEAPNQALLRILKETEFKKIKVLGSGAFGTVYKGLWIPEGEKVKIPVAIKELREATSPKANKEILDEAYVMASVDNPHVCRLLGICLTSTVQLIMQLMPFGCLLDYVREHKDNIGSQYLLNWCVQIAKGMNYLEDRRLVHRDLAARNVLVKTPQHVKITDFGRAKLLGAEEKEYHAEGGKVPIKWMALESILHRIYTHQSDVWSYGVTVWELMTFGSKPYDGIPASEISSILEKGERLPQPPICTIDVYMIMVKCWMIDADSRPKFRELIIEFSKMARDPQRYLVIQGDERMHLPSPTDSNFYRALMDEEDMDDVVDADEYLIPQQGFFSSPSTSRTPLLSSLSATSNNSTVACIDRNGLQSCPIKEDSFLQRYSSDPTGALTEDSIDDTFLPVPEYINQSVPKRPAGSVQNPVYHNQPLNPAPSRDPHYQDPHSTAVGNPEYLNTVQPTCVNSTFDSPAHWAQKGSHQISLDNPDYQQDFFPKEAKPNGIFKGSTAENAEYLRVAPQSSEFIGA
Kind of experiment: NCI-H1975 pEGFR AlphaLISA assay. The settings on record: NCI-H1975 cells (EGFR L858R T790M), p-EGFR (Tyr1068), 4-5 hours incubation; read-out: Ext pEGFR H1975 GMean IC50 (nM) Protocol: @Pharmaron AlphaLISA (Num). In kind it is cell-based. On the procedure: On the next day, the test compounds and DMSO control were added into H1975 cell plate followed by incubation at 37C/5% CO2 for 4-5 hours. […] Then 5 μL of a donor bead mix was added to each well followed by overnight incubation at room temperature in dark. On the next day, the plate was read at a compatible plate reader to obtain pEGFR signal. Percent of pEGFR inhibition was plotted against log concentration of compounds to generate IC50 values.
On the technique in general: Alpha assays give light when donor and acceptor beads are brought close together.

Counter-ions that a name gives are not always drawn.

In general, IC50 refers to the concentration that gives 50% inhibition.

T1 sequence (P00533 25-1210 T790M/C797S/L858R): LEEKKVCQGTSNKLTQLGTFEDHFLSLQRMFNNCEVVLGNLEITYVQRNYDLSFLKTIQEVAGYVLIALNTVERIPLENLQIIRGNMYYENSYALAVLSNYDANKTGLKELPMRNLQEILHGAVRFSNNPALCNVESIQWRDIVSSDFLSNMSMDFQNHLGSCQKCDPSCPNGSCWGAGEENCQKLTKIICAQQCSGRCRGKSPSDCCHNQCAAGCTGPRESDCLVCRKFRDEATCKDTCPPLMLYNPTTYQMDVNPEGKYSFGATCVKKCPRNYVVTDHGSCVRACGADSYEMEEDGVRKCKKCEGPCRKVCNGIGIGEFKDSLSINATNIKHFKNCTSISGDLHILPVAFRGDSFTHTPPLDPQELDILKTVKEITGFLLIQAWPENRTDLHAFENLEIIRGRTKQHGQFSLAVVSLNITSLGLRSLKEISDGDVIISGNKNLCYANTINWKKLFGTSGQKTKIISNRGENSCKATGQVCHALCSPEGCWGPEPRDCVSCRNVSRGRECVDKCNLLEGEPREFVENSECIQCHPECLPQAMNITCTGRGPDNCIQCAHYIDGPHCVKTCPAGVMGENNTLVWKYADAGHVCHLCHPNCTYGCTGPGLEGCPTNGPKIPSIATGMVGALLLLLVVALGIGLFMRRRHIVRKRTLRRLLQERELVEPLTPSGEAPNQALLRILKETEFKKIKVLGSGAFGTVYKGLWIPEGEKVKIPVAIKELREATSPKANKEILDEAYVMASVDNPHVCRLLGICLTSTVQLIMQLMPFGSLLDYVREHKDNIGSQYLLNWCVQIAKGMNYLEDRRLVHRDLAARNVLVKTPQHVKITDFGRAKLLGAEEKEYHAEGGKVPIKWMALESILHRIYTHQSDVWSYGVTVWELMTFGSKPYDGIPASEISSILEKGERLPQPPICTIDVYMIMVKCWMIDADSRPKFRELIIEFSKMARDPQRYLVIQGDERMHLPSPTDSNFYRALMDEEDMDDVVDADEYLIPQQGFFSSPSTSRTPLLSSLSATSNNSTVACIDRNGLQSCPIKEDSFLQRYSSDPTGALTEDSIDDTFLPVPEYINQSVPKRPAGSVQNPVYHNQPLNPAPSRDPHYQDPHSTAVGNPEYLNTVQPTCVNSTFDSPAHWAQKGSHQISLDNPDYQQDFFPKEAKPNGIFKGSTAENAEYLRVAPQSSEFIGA

`CC(C)c1ccc(N2CC(n3ccnn3)C2)c2cnc(Nc3ccnc(N4CC[C@@H](O)[C@@](C)(F)C4)n3)cc12` [Example 38, (3S,4R)-1-(4-((8-(3-(1H-1,2,3-triazol-1-yl)azetidin-1-yl)-5-isopropylisoquinolin-3-yl)amino)pyrimidin-2-yl)-3-fluoro-3-methylpiperidin-4-ol]: the figures for the IC50 (on EGFR (L858R T790M C797S); in experiment [1]) were under 15 nM and under 10 nM, respectively.
With `CO[C@H]1CCN(c2nccc(Nc3cc4c(C(C)C)ccc(N5CC[C@H]5CN)c4cn3)n2)C[C@H]1F` [Example 39, 8-((S)-2-(aminomethyl)azetidin-1-yl)-N-(2-((3R,4S)-3-fluoro-4-methoxypiperidin-1-yl)pyrimidin-4-yl)-5-isopropylisoquinolin-3-amine], the IC50 on EGFR (L858R T790M C797S) was under 15 nM; in experiment [1], over 50 nM.
For `CC(C)c1ccc(N2CC(Cn3ccnn3)C2)c2cnc(Nc3ccnc(N4CC[C@](C)(O)[C@H](F)C4)n3)cc12` [Example 40, (3R,4S)-1-(4-((8-(3-((1H-1,2,3-triazol-1-yl)methyl)azetidin-1-yl)-5-isopropylisoquinolin-3-yl)amino)pyrimidin-2-yl)-3-fluoro-4-methylpiperidin-4-ol] the same measures were under 15 nM and 20 to 30 nM.
For `CO[C@@H]1CCN(c2nccc(Nc3cc4c(C(C)C)cnc(N5CCC56CN(C)C6)c4cn3)n2)C[C@@H]1F` [Example 41, N-(2-((3S,4R)-3-fluoro-4-methoxypiperidin-1-yl)pyrimidin-4-yl)-5-isopropyl-8-(6-methyl-1,6-diazaspiro[3.3]heptan-1-yl)-2,7-naphthyridin-3-amine] the same measures were under 15 nM and 30 to 50 nM.
Consider `CO[C@H]1CCN(c2nccc(Nc3cc4c(C(C)C)cnc(N5CCC56CN(C)C6)c4cn3)n2)C[C@H]1F` [Example 42, N-(2-((3R,4S)-3-fluoro-4-methoxypiperidin-1-yl)pyrimidin-4-yl)-5-isopropyl-8-(6-methyl-1,6-diazaspiro[3.3]heptan-1-yl)-2,7-naphthyridin-3-amine], for which the results for the IC50 (on EGFR (L858R T790M C797S); in experiment [1]) were 20 to 30 nM and over 50 nM, respectively.
In the same order, the values of `CO[C@H]1CCN(c2nccc(Nc3cc4c(C(C)C)cnc(N5CC(O)C5)c4cn3)n2)C[C@H]1F` [Example 44, 1-(6-((2-((3R,4S)-3-fluoro-4-methoxypiperidin-1-yl)pyrimidin-4-yl)amino)-4-isopropyl-2,7-naphthyridin-1-yl)azetidin-3-ol] are under 15 nM and 20 to 30 nM.
In the same order, the values of `CC(C)c1cnc(N2CCCC2)c2cnc(Nc3ccnc(N4CC[C@@H](O)[C@@](C)(F)C4)n3)cc12` [Example 45, (3S,4R)-3-fluoro-1-(4-((5-isopropyl-8-(pyrrolidin-1-yl)-2,7-naphthyridin-3-yl)amino)pyrimidin-2-yl)-3-methylpiperidin-4-ol] are 20 to 30 nM and over 50 nM.
Take `CC(C)c1cnc(N2CCC2)c2cnc(Nc3ccnc(N4CC[C@@H](O)[C@@](C)(F)C4)n3)cc12` [Example 46, (3S,4R)-1-(4-((8-(azetidin-1-yl)-5-isopropyl-2,7-naphthyridin-3-yl)amino)pyrimidin-2-yl)-3-fluoro-3-methylpiperidin-4-ol]: the values for the IC50 (on EGFR (L858R T790M C797S); in experiment [1]) were under 15 nM and 20 to 30 nM, respectively.
In the same order, the values of `CC(C)c1cnc(N2CC(F)C2)c2cnc(Nc3ccnc(N4CC[C@@H](O)[C@@](C)(F)C4)n3)cc12` [Example 47, (3S,4R)-3-fluoro-1-(4-((8-(3-fluoroazetidin-1-yl)-5-isopropyl-2,7-naphthyridin-3-yl)amino)pyrimidin-2-yl)-3-methylpiperidin-4-ol] are under 15 nM and 20 to 30 nM.
Take `CC(C)c1cnc(N2CC[C@H]2CN(C)C)c2cnc(Nc3ccnc(N4CC[C@@H](O)[C@@](C)(F)C4)n3)cc12` [Example 48, (3S,4R)-1-(4-((8-((S)-2-((dimethylamino)methyl)azetidin-1-yl)-5-isopropyl-2,7-naphthyridin-3-yl)amino)pyrimidin-2-yl)-3-fluoro-3-methylpiperidin-4-ol trifluoroacetate]: the figures for the IC50 (on EGFR (L858R T790M C797S); in experiment [1]) were under 15 nM and 10 to 20 nM, respectively.
For `CC(C)c1ncc(N2CC(F)C2)c2cnc(Nc3ccnc(N4CC[C@@H](O)[C@@](C)(F)C4)n3)cc12` [Example 49, (3S,4R)-3-fluoro-1-(4-((8-(3-fluoroazetidin-1-yl)-5-isopropyl-2,6-naphthyridin-3-yl)amino)pyrimidin-2-yl)-3-methylpiperidin-4-ol] the same measures were 15 to 20 nM and 30 to 50 nM.
In the same order, the values of `CC(C)c1cnc(N2CC(C)(O)C2)c2cnc(Nc3ccnc(N4CC[C@@H](O)[C@@](C)(F)C4)n3)cc12` [Example 50, (3S,4R)-3-fluoro-1-(4-((8-(3-hydroxy-3-methylazetidin-1-yl)-5-isopropyl-2,7-naphthyridin-3-yl)amino)pyrimidin-2-yl)-3-methylpiperidin-4-ol] are 20 to 30 nM and over 50 nM.
In the case of `COC1CN(c2ncc(C(C)C)c3cc(Nc4ccnc(N5CC[C@@H](O)[C@@](C)(F)C5)n4)ncc23)C1` [Example 51, (3S,4R)-3-fluoro-1-(4-((5-isopropyl-8-(3-methoxyazetidin-1-yl)-2,7-naphthyridin-3-yl)amino)pyrimidin-2-yl)-3-methylpiperidin-4-ol], the IC50 was under 15 nM at EGFR (L858R T790M C797S) and 20 to 30 nM in experiment [1].
In the same order, the values of `CC(C)c1cnc(N2CC[C@H]2CO)c2cnc(Nc3ccnc(N4CC[C@@H](O)[C@@](C)(F)C4)n3)cc12` [Example 52, (3S,4R)-3-fluoro-1-(4-((8-((S)-2-(hydroxymethyl)azetidin-1-yl)-5-isopropyl-2,7-naphthyridin-3-yl)amino)pyrimidin-2-yl)-3-methylpiperidin-4-ol] are under 15 nM and under 10 nM.
For `CC(C)c1cnc(N2CCC23COC3)c2cnc(Nc3ccnc(N4CC[C@@H](O)[C@@](C)(F)C4)n3)cc12` [Example 53, (3S,4R)-3-fluoro-1-(4-((5-isopropyl-8-(6-oxa-1-azaspiro[3.3]heptan-1-yl)-2,7-naphthyridin-3-yl)amino)pyrimidin-2-yl)-3-methylpiperidin-4-ol] the same measures were under 15 nM and 20 to 30 nM.
In the same order, the values of `CC(C)c1cnc(N2CC3(CCO3)C2)c2cnc(Nc3ccnc(N4CC[C@@H](O)[C@@](C)(F)C4)n3)cc12` [Example 54, (3S,4R)-3-fluoro-1-(4-((5-isopropyl-8-(1-oxa-6-azaspiro[3.3]heptan-6-yl)-2,7-naphthyridin-3-yl)amino)pyrimidin-2-yl)-3-methylpiperidin-4-ol] are 15 to 20 nM and 20 to 30 nM.
For `CC(C)c1cnc(N2CC(C(F)F)C2)c2cnc(Nc3ccnc(N4CC[C@@H](O)[C@@](C)(F)C4)n3)cc12` [Example 55, (3S,4R)-1-(4-((8-(3-(difluoromethyl)azetidin-1-yl)-5-isopropyl-2,7-naphthyridin-3-yl)amino)pyrimidin-2-yl)-3-fluoro-3-methylpiperidin-4-ol], the values for the IC50 (at EGFR (L858R T790M C797S); in experiment [1]) were under 15 nM and 10 to 20 nM, respectively.
In the same order, the values of `CC(C)c1cnc(N2C[C@@H](F)[C@@H](F)C2)c2cnc(Nc3ccnc(N4CC[C@@H](O)[C@@](C)(F)C4)n3)cc12` [Example 56, (3S,4R)-1-(4-((8-(cis-3,4-difluoropyrrolidin-1-yl)-5-isopropyl-2,7-naphthyridin-3-yl)amino)pyrimidin-2-yl)-3-fluoro-3-methylpiperidin-4-ol] are under 15 nM and over 50 nM.
With `CC(C)c1cnc(N2CCC(F)(F)C2)c2cnc(Nc3ccnc(N4CC[C@@H](O)[C@@](C)(F)C4)n3)cc12` [Example 57, (3S,4R)-1-(4-((8-(3,3-difluoropyrrolidin-1-yl)-5-isopropyl-2,7-naphthyridin-3-yl)amino)pyrimidin-2-yl)-3-fluoro-3-methylpiperidin-4-ol], the IC50 on EGFR (L858R T790M C797S) was under 15 nM; in experiment [1], 20 to 30 nM.
On to `CC(C)c1cnc(N2CC(C#N)C2)c2cnc(Nc3ccnc(N4CC[C@@H](O)[C@@](C)(F)C4)n3)cc12` [Example 58, 1-(6-((2-((3S,4R)-3-fluoro-4-hydroxy-3-methylpiperidin-1-yl)pyrimidin-4-yl)amino)-4-isopropyl-2,7-naphthyridin-1-yl)azetidine-3-carbonitrile], for which the IC50 was under 15 nM on EGFR (L858R T790M C797S) and 10 to 20 nM in experiment [1].
In the same order, the values of `CC(C)c1cnc(N2CC3(C2)CC3(F)F)c2cnc(Nc3ccnc(N4CC[C@@H](O)[C@@](C)(F)C4)n3)cc12` [Example 59, (3S,4R)-1-(4-((8-(1,1-difluoro-5-azaspiro[2.3]hexan-5-yl)-5-isopropyl-2,7-naphthyridin-3-yl)amino)pyrimidin-2-yl)-3-fluoro-3-methylpiperidin-4-ol] are under 15 nM and 10 to 20 nM.
Turning to `CC(C)c1cnc(N2CC(CO)C2)c2cnc(Nc3ccnc(N4CC[C@@H](O)[C@@](C)(F)C4)n3)cc12` [Example 61, (3S,4R)-3-fluoro-1-(4-((8-(3-(hydroxymethyl)azetidin-1-yl)-5-isopropyl-2,7-naphthyridin-3-yl)amino)pyrimidin-2-yl)-3-methylpiperidin-4-ol], the IC50 on EGFR (L858R T790M C797S) is under 15 nM; in experiment [1] it was 30 to 50 nM.

For the origin of these results see patent US20240382483A1, “HETEROCYCLIC EGFR INHIBITORS FOR USE IN THE TREATMENT OF CANCER” (Blueprint Medicines Corporation, priority 2021, published 2024).
